Data from US20030148970A1, “Methods for specifically inhibiting histone deacetylase-4” (priority 2001, published 2003).
pIC50: −log10 of the molar value. d = 2'-deoxy (DNA); m = 2'-O-methyl

Key:
human HDAC-4 = target: T1, human HDAC-4 (Homo sapiens, UniProt P56524); test: histone deacetylase enzyme assay, HDAC-4; assay type: biochemical
T1 construct: Flag; made in house; host or cells: human embryonic kidney 293 cells (calcium phosphate transfection)
Procedure: Flag-tagged human HDAC-4 enzyme was produced in human embronic kidney 293 cells after transformation by the calcium phosphate precipitation method. Briefly, 293 cells were cultured in Dulbecco's Modified Eagle Medium (DMEM) containing 10% fetal bovine serum and antibiotics. Plasmid DNA encoding Flag-tagged human HDAC-4 was precipitated by ethanol and resuspend in sterile water. DNA-calcium precipitates, formed by mixing DNA, calcium choloride and 2×HEPES-buffered saline solution, were left on 293 cells for 12-16 hours. Cells were return to serum-contained DMEM medium and harvested at 48 hour post transfection for purification of Flag-tagged HDAC-4 enzyme.
(§1) The other HDAC isotypes, HDAC-3 and HDAC-4, were purified directly on an anti-Flag affinity column.
(§2) For the deacetylase assay, 20,000 cpm of an [^3H]-metabolically-labeled acetylated histone was used as a substrate. Histones were incubated with cloned recombinant human HDAC enzymes at 37° C. […] All assay conditions were pre-determined to be certain that each reaction was linear. Reactions were stopped by adding acetic acid (0.04 M final concentration) and HCl (250 mM, final concentration). The mixture was extracted with ethyl acetate, and the released [3H]-acetic acid was quantified by liquid scintillation counting. For the inhibition studies, HDAC enzyme was preincubated with test compounds for 30 minutes at 4° C. prior to the start of the enzymatic assay. IC50 values for HDAC enzyme inhibitors were identified with dose response curves for each individual compound and, thereby, obtaining a value for the concentration of inhibitor that produced fifty percent of the maximal inhibition.

human HDAC-6 = target: T2, human HDAC-6 (Homo sapiens, UniProt Q9UBN7); test: histone deacetylase enzyme assay, HDAC-6; assay type: biochemical
T2 construct: made in house; host or cells: insect cells (baculovirus expression system)
T2 sequence (Q9UBN7 1-1215): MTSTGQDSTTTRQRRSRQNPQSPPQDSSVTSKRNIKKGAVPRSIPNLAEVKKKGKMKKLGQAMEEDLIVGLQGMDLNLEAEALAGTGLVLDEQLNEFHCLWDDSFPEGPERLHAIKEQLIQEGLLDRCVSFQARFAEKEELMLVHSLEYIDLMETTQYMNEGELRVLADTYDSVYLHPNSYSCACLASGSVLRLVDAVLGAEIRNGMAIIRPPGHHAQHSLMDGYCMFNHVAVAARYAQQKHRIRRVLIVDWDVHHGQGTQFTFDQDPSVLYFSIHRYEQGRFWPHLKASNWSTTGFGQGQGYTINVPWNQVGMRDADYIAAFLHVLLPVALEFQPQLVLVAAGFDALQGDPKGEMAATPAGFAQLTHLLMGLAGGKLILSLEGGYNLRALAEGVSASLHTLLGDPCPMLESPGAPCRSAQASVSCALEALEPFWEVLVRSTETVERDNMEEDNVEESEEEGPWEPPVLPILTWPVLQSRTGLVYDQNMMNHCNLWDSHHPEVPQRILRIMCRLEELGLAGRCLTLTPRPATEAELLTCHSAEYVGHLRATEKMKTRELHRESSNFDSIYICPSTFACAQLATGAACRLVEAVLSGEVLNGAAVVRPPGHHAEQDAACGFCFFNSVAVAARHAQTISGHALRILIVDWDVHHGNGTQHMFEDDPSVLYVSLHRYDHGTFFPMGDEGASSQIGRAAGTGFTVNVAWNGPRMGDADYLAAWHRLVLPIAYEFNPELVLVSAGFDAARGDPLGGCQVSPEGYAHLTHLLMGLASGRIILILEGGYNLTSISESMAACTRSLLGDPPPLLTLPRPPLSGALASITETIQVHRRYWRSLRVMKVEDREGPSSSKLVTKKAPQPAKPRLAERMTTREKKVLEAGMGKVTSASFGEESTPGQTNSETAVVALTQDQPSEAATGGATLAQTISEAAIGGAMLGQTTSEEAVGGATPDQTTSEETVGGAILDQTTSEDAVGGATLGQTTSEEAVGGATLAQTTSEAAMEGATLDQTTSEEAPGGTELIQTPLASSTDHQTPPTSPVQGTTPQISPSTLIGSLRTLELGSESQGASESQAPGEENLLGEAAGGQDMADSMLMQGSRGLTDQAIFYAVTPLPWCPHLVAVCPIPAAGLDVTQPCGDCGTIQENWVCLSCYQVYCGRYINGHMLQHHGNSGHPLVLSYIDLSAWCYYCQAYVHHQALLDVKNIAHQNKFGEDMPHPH
Procedure: as §1, §2

p21 = p21 induction by small molecules; assay type: cell-based
[1] = test system: acetylated histone H-4 in T24 human bladder cancer cells; test: inhibition of HDAC activity in whole cells (acetylated histone H-4 Western); assay type: cell-based; conditions: 16 hours
Procedure: T24 human bladder cancer cells (ATCC, Manassas, Va.) growing in culture were incubated with test compounds for 16 hours. Histones were extracted from the cells by standard procedures (see e.g. Yoshida et al., supra) after the culture period. Twenty μg total core histone protein was loaded onto SDS/PAGE and transferred to nitrocellulose membranes, which were then reacted with polyclonal antibody specific for acetylated histone H-4 (Upstate Biotech Inc., Lake Placid, […].). Horse Radish Peroxidase conjugated secondary antibody was used at a dilution of 1:5000 to detect primary antibody binding. The secondary antibody binding was visualized by use of the Enhanced chemiluminescence (ECL) detection kit (Amersham-Pharmacia Biotech., Inc., Piscataway, N.J.). After exposure to film, acetylated H-4 signal was quantitated by densitometry.

HDAC 2 = HDAC 2 (Homo sapiens, UniProt Q92769); test: histone deacetylase enzyme assay, HDAC 2; assay type: biochemical
HDAC 2, sequence (Q92769 whole entry): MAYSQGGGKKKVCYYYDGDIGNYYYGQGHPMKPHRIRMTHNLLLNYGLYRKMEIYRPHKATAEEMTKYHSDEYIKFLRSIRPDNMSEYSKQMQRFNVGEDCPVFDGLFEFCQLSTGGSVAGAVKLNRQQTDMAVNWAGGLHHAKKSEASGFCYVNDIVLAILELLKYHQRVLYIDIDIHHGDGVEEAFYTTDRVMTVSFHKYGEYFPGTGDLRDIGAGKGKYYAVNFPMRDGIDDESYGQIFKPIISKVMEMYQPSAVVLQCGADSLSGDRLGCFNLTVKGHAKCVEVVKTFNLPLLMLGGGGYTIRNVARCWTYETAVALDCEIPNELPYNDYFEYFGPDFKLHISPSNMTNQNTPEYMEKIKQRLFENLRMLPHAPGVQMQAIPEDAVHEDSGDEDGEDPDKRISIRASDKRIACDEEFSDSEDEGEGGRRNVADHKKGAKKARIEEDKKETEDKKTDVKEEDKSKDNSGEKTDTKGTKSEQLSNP
Procedure: as §2

human HDAC-3 = target: T3, human HDAC-3 (Homo sapiens, UniProt O15379); test: histone deacetylase enzyme assay, HDAC-3; assay type: biochemical
T3 construct: made in house; host or cells: insect cells (baculovirus expression system)
T3 sequence (O15379 whole entry): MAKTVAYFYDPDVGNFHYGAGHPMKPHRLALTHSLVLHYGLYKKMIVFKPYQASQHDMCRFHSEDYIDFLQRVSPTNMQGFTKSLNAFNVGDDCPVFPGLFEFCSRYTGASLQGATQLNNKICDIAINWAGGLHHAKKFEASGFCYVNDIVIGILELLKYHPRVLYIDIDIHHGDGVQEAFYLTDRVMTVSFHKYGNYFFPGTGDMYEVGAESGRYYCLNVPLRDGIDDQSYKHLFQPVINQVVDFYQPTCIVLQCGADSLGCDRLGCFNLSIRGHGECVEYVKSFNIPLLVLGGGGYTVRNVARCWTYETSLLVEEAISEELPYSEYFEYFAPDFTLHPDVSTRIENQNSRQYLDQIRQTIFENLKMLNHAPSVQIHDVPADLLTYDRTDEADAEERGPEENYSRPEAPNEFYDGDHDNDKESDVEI
Procedure: as §1, §2

[2] = test system: human colon cancer cells (HCT116); test: tumor growth in a mouse model, colon; assay type: in vivo, BALB/c nude mice; conditions: 40 mg/kg body weight/day, i p; vs vehicle-treated mice
Procedure: Female BALB/c nude mice were obtained from Charles River Laboratories (Charles River, NY) and used at age 8-10 weeks. Human prostate tumor cells (DU145, 2×10^6) or human colon cancer cells (HCT116; 2×10^6) or small lung core A549 2×10^6 were injected subcutaneously in the animal's flank and allowed to form solid tumors. Tumor fragments were serially passaged a minimum of three times, then approximately 30 mg tumor fragments were implanted subcutaneously through a small surgical incision under general anaesthesia. Small molecule inhibitor administration by intraperotineal or oral administration was initiated when the tumors reached a volume of 100 mm^3. For intraperotineal administration, small molecule inhibitors of HDAC (40-50 mg/kg body weight/day) were dissolved in 100% DMSO and administered daily intraperitoneally by injection. For oral administration, small molecule inhibitors of HDAC (40-50 mg/kg body weight/days) were dissolved in a solution containing 65% polyethylene glycol 400 (PEG 400 (Sigma-Aldridge, Mississauga, Ontario, Calif., Catalogue No. P-3265), 5% ethanol, and 30% water. Tumor volumes were monitored twice weekly up to 20 days. Each experimental group contained at least 6-8 animals. Percentage inhibition was calculated using volume of tumor from vehicle-treated mice as controls.

cell cycle arrest = assay type: cell-based
[3] = test system: human colon cancer HCT116 cells; test: MTT assay of cell proliferation and cytotoxicity; assay type: cell-based; conditions: HCT-116, 48 hours
Procedure: Four thousand five hundred (4,500) human colon cancer HCT116 cells (ATCC, Manassas, Va. were used in an MTT (3-[4,5-dimethylthiazol-2-yl]-2,5 diphenyl tetrazolium bromide) assay to quantitatively determine cell proliferation and cytotoxicity. Typically, HCT116 cells were plated into each well of the 96-well tissue culture plate and left overnight to attach to the plate. Compounds at various concentrations (1 uM, 5 uM and 25 uM, in DMSO) were added in triplicate into the culture media (final DMSO concentration 1%) and incubated for 48 hours. MTT solution (obtained from Sigma as powder) was added and incubated with the cells for 4 hours at 37° C. in incubator with 5% CO2. During the incubation, viable cells convert MTT to a water-insoluble formazan dye. Solubilizing buffer (50% N,N-dimethylformamide, 20% SDS, pH 4.7) was added to cells and incubate for overnight at 37C in incubator with 5% CO2. Solubilized dye was quantitated by colorimetric reading at […] using a reference of […].

HDAC-4 mRNA = test: Northern blot of HDAC-4 mRNA in A549 cells; assay type: cell-based, human; conditions: escalating doses (50 nM or 100 nM), 24 hours
Procedure: Human cancer A549 cells were treated with escalating doses of AS1, AS2 or MM2 oligos for 24 hours. Total RNAs were harvested for Northern analysis.
Briefly, human A549 and/or T24 human bladder carcinoma cells were seeded in 10 cm tissue culture dishes one day prior to oligonucleotide treatment. The cell lines were obtained from the American Type Culture Collection (ATCC) (Manassas, Va.) and were grown under the recommended culture conditions. Before the addition of the oligonucleotides, cells were washed with PBS (phosphate buffered saline). Next, lipofectin transfection reagent (GIBCO BRL Mississauga, Ontario, Calif.), at a concentration of 6.25 μg/ml, was added to serum free OPTIMEM medium (GIBCO BRL, Rockville, Md.), which was then added to the cells. The oligonucleotides to be screened were then added directly to the cells (i.e., one oligonucleotide per plate of cells). Mismatched oligonucleotides were used as controls. The same concentration of oligonucleotide (e.g., 50 nM) was used per plate of cells for each oligonucleotide tested.
Cells were harvested, and total RNAs were analyzed by Northern blot analysis. Briefly, total RNA was extracted using RNeasy miniprep columns (QIAGEN). Ten to twenty μg of total RNA was run on a formaldehyde-containing 1% agarose gel with 0.5 M sodium phosphate (pH 7.0) as the buffer system. […]

Human A549 cells = test: cDNA array analysis of gene transcription; assay type: cell-based; conditions: A549, 50 nM, two days
Text: Fold change on transcriptions was compared to that of HDAC-4 mismatch oligo (MM2) treated cells;

human HDAC-4 protein = test: Western blot of HDAC-4 protein in A549 cells; assay type: cell-based; conditions: 50 nM, 48 hours
Procedure: Human cancer A549 cells were treated with AS1, AS2 or MM2 oligos for 48 hours. Whole cell lysates were analyzed by Western blotting using antibodies specific against human HDAC4.
OSDN treatment conditions were as previously described.
Cells were lysed in buffer containing 1% Triton X-100, 0.5% sodium deoxycholate, 5 mM EDTA, 25 mM Tris-HCl, pH 7.5, plus protease inhibitors. Total protein was quantified by the protein assay reagent from Bio-Rad (Hercules, Calif.). 100 ug of total protein was analyzed by SDS-PAGE. Next, total protein was transferred onto a PVDF membrane and probed with various HDAC-specific primary antibodies. Rabbit anti-HDAC-1 (H-51), anti-HDAC-2 (H-54) antibodies (Santa Cruz Biotechnologies, Santa Cruz, Calif.) were used at 1:500 dilution. Rabbit anti-HDAC-3 antibody (Sigma, St. Louis, Mo.) was used at a dilution of 1:1000. Anti-HDAC-4 antibody was prepared as previously described (Wang, S. H. et al., (1999) Mol. Cell. Biol. 19:7816-27), and was used at a dilution of 1:1000. Anti-HDAC-6 antibody was raised by immunizing rabbits with a GST fusion protein containing a fragment of HDAC-6 protein (amino acid #990 to #1216, GenBank Accession No. AAD29048). Rabbit antiserum was tested and found only to react specifically to the human HDAC-6 isoform. HDAC-6 antiserum was used at 1:500 dilution in Western blots to detect HDAC-6 in total cell lysates. […]

T1 sequence (P56524 whole entry): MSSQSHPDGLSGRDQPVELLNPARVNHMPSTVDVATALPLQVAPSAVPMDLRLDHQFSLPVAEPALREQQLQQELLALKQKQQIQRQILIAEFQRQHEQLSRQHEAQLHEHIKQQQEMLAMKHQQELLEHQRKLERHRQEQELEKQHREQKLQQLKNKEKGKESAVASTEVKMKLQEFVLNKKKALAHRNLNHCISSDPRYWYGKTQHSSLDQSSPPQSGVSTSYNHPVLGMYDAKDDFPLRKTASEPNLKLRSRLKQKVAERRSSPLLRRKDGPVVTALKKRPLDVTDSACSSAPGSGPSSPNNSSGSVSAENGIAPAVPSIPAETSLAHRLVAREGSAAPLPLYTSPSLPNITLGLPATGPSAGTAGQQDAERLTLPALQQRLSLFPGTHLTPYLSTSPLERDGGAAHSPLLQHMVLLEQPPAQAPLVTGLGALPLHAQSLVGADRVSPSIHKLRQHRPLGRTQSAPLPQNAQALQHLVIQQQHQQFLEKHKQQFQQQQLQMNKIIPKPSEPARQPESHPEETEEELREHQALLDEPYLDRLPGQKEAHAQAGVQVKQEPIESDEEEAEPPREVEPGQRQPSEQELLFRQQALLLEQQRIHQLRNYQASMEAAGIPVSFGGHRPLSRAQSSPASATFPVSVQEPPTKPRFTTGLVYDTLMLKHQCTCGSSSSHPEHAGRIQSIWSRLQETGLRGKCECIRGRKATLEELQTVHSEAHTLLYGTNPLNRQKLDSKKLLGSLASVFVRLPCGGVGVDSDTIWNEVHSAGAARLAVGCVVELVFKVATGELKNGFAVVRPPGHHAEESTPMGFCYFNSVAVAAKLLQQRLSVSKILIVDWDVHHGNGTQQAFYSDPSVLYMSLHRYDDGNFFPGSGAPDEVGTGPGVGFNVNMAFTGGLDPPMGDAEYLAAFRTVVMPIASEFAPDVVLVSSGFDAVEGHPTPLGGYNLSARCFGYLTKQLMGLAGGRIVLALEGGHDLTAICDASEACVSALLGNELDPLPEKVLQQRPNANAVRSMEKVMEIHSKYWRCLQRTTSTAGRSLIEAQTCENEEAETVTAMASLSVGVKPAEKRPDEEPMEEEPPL

Row | IC50 (human HDAC-4) | IC50 (human HDAC-6) | IC50 (HDAC 2) | IC50 (human HDAC-3) | Compound | p21 induction (p21) | effective concentration for histone H4 acetylation [1] | cell cycle arrest EC (cell cycle arrest) | pIC50 [3] | expression of HDAC-4 mRNA (HDAC4 expression at RNA level) (HDAC-4 mRNA) | expression of HDAC-4 protein (human HDAC-4 protein) | further results
1 | 23 µM | > 50 µM | 4 µM | > 20 µM | Nc1ccccc1NC(=O)CCCCCCC(=O)c1ccc(-c2ccccc2)cc1 [MG 365 0] | 10 µM | 10 µM | 9 µM | 5.30 |  |  | % inh. of tumor formation in vivo, colon [2]: 53 (40, i p) %
2 | 13 µM | > 50 µM | 8 µM | 18 µM | Nc1ccccc1NC(=O)CCCCCCC(=O)c1ccc(-c2ccccc2)nc1 [MG 385 9] | 5 µM | 5 µM | 3 µM | 5.30 |  |  | 
3 |  |  |  |  | HDAC-4 AS1: 5′-GCTGCCTGCCGTGCCCACCC-3′, antisense to human HDAC4 5′-UTR, AB006626 (sugars from the 5' end m4 d12 m4, all phosphorothioate, methylation of C and T or U not given here) |  |  |  |  | can inbibit HDAC4 expression at RNA level in a dose-dependent manner | can inbibit HDAC4 expression at protein level | fold change, CDK4 (Human A549 cells; vs HDAC-4 mismatch oligo (MM2)): −3 fold; fold change, Egr-1 (Human A549 cells; vs HDAC-4 mismatch oligo (MM2)): 3 fold; fold change, GADD45 (Human A549 cells; vs HDAC-4 mismatch oligo (MM2)): 3 fold; fold change, GADD153 (Human A549 cells; vs HDAC-4 mismatch oligo (MM2)): 6 fold; fold change, IL-15 (Human A549 cells; vs HDAC-4 mismatch oligo (MM2)): 4 fold; fold change, IRF (Human A549 cells; vs HDAC-4 mismatch oligo (MM2)): 2 fold; fold change, Notch-4 (Human A549 cells; vs HDAC-4 mismatch oligo (MM2)): −3 fold; fold change, PLK (Human A549 cells; vs HDAC-4 mismatch oligo (MM2)): −4 fold; fold change, basic FGF (Human A549 cells; vs HDAC-4 mismatch oligo (MM2)): 2 fold; fold change, cyclin A2 (Human A549 cells; vs HDAC-4 mismatch oligo (MM2)): −3 fold; fold change, cyclin B1 (Human A549 cells; vs HDAC-4 mismatch oligo (MM2)): −3 fold; fold change, p21 (Human A549 cells; vs HDAC-4 mismatch oligo (MM2)): 4 fold; fold change, topo II α (Human A549 cells; vs HDAC-4 mismatch oligo (MM2)): −5 fold; number of genes with altered expression (Human A549 cells; out of 588 genes): 39 genes
4 |  |  |  |  | HDAC4 AS2: 5′-TACAGTCCATGCAACCTCCA-3′, antisense to human HDAC4 3′-UTR, AB006626 (sugars from the 5' end m4 d12 m4, all phosphorothioate, methylation of C and T or U not given here) |  |  |  |  | can inbibit HDAC4 expression at RNA level in a dose-dependent manner | can inbibit HDAC4 expression at protein level | 
